Assays:
[1] = tested on: human peripheral blood mononuclear cells; assay: Inhibition of proliferation of PHA-stimulated mononuclear cells (BrdU incorporation); assay type: cell-based; settings: PBMC, 1 μg/ml Phytohemagglutinine, 48 hours, test compounds 0.1-250 μM, read-out: MNC IC50
Procedure: (§1) Peripheral blood mononuclear cells (PBMC) from healthy human volunteers were freshly isolated by density gradient centrifugation. T lymphocytes (T cells, Tc) were isolated from PBMC fractions via nylon wool adherence. Cells were cultured in standard cell culture media and stimulated by addition of 1 μg/ml Phytohemagglutinine for 48 hours in 96 well flat-bottom microtitre plates. Test compounds were added at concentration ranges from 0.1-250 μM over the total assay period.
DNA synthesis of proliferating PBMC was assessed by incorporation of nucleotide analogue bromdesoxyuridine (BrdU) and subsequent detection of optical density (OD) at 450 nm.
(§2) Data output was based on raw data and calculation of relative proliferation response in relation to PHA-activated T cells in the absence of test compound (100% control).
(§3) The […] value of proliferation suppression was assessed by graphical evaluation.

T lymphocytes = assay: Inhibition of proliferation of PHA-stimulated T lymphocytes (tritium thymidine incorporation); assay type: cell-based; settings: Homo sapiens, T-lymphocyte, 1 μg/ml Phytohemagglutinine, 48 hours, test compounds 0.1-250 μM, read-out: T cells IC50
Procedure: as §1
DNA synthesis of proliferating T cells was determined by incorporation of radio labelled tritium thymidine and subsequent radio detection.
as §2, §3

[2] = molecular target: human recombinant Aminopeptidase N (Homo sapiens, UniProt P15144); assay: Measurement of APN activity (fluorogenic substrate (Ala)2-R110); assay type: biochemical; settings: human recombinant APN approx. 5 nM, substrate 0.5 μM, pH 7.5
Procedure: Inhibitory effects of test items on the enzymatic activity of human recombinant Aminopeptidase N (final concentration approx. 5 nM) were assessed by using the fluorogenic substrate bis-(L-alanyl)-Rhodamine-110 (bis-trifluoracetate, abbreviation (Ala)2-R110) at a final concentration of 0.5 μM. The assay was performed in 0.05 M TRIS/HCl buffer pH 7.5, supplemented with 0.05% Triton (v/v), 0.05% BSA (w/v), 2 mM MgCl2.
The assay was performed in white microtitre plates for fluorescence measurements.
As controls, (Ala)2-R110 hydrolyzing activity in the absence of any test item as well as the spontaneous substrate hydrolysis was determined.
The release of the fluorescent hydrolysis product Rhodamine 110 was measured at an excitation wavelength of 485 nm and an emission wavelength of 530 nm by using a microtitre fluorescence reader immediately after substrate addition as well as after 30, 60 and 120 min.

[3] = molecular target: purified, recombinant human DPIV (Homo sapiens, UniProt P27487); assay: Measurement of DPIV activity (fluorogenic substrate (Ala-Pro)2-R110)
Sequence of purified, recombinant human DPIV (P27487 whole entry): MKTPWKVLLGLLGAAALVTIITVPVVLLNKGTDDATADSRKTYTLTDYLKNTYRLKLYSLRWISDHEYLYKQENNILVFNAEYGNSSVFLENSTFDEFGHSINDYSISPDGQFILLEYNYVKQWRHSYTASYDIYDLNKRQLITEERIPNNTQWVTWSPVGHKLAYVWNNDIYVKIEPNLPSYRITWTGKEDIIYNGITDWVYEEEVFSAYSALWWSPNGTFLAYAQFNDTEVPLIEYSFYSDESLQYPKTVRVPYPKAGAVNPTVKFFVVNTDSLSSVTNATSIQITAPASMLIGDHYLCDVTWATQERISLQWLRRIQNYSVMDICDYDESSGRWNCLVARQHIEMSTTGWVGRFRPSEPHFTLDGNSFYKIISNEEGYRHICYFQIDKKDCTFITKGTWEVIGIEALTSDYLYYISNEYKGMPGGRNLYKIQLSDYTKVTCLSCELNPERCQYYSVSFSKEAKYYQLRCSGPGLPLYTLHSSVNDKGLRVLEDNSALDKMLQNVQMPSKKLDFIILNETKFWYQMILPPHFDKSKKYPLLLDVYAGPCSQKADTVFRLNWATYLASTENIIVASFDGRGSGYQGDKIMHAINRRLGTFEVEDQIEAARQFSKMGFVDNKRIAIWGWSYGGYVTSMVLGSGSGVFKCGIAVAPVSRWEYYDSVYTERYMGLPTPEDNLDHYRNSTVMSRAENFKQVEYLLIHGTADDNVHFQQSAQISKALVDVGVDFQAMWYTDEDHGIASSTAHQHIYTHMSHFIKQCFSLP
Procedure: The enzymatic activity of DPIV was assessed by the hydrolysis of the fluorogenic substrate bis-(L-alanyl-prolyl)-Rhodamin-110 (bis-trifluoracetate, abbreviation (Ala-Pro)2-R110). The final substrate concentration was 0.5 μM.
The assay was performed in white microtitre plates for fluorescence measurements. The test items, substrate and enzyme were diluted in assay buffer. […] As controls, the DPIV activity in the absence of test items as well as the spontaneous hydrolysis of the substrate was determined.

Sequence of human recombinant Aminopeptidase N (P15144 whole entry): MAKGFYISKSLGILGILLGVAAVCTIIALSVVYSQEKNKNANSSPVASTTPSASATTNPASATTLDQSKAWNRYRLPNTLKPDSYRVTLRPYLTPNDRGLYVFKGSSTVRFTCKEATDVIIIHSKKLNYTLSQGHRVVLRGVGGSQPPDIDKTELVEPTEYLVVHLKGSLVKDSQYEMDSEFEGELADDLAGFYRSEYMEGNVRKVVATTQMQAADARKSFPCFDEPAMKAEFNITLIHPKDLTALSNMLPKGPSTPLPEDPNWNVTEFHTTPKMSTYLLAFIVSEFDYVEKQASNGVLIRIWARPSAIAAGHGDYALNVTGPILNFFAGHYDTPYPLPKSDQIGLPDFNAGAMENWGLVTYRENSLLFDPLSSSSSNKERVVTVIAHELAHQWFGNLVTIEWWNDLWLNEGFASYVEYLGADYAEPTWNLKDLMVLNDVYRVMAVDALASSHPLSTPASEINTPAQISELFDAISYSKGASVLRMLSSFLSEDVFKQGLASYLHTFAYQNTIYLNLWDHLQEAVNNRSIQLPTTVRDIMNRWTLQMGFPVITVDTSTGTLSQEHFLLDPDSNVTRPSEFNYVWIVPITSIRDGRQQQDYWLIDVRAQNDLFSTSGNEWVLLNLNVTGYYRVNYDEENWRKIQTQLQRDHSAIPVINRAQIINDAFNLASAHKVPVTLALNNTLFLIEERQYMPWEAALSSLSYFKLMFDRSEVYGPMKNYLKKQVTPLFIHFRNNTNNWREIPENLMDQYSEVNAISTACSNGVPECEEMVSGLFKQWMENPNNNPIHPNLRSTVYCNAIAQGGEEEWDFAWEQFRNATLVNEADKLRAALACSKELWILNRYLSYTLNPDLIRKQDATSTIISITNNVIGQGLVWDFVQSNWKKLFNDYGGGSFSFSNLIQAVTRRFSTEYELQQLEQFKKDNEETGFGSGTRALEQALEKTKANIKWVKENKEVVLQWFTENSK

IC50 [2] [µM]	IC50 [3] [µM]	SMILES	IC50 [1] [µM]	IC50 (T lymphocytes) [µM]
		NC(CC(=O)N1CCN(C(=O)CC(O)C(N)Cc2ccccc2)CC1)Cc1ccccc1 (stereo not drawn) [drawing 222]	135	157
		CCC(CC)(CNC(=O)CC(N)Cc1ccccc1)CNC(=O)C(O)C(N)Cc1ccccc1 (stereo not drawn) [drawing 228]	49.1	14.8
		CCCCCCCCCCCCCCCCNC(CC(=O)NCC(C)(C)CNC(=O)C(O)C(Cc1ccccc1)NCCCCCCCCCCCCCCCC)Cc1cc(F)ccc1F (stereo not drawn) [drawing 272]	10	11
		NC(CC(=O)N1CCCN(C(=O)C(O)C(N)Cc2ccccc2)CC1)Cc1cc(F)ccc1F (stereo not drawn) [drawing 271]	200	83.5
		CCCCCCCC(=O)OC(C(=O)NCCCCNC(=O)CC(N)Cc1cc(F)ccc1F)C(N)Cc1ccccc1 (stereo not drawn) [drawing 256]	10.6	19
		CCCCCCCC(=O)NC(CC(=O)NCC(C)(C)CNC(=O)C(O)C(Cc1ccccc1)NC(=O)CCCCCCC)Cc1cc(F)ccc1F (stereo not drawn) [drawing 239]	10.9	8.2
		CC(C(=O)NCC(C)(C)CNC(=O)C(O)C(N)Cc1ccccc1)C(N)Cc1cc(F)ccc1F (stereo not drawn) [drawing 266]	41.6	38.9
		C[C@@H]1CN(C(=O)CC(O)C(N)Cc2ccccc2)C[C@H](C)N1C(=O)CC(N)Cc1ccccc1 (stereo partly drawn) [drawing 225]	84.5	147
		CCCC(=O)OC(C(=O)NCC(C)(C)CNC(=O)CC(N)Cc1cc(F)ccc1F)C(N)Cc1ccccc1 (stereo not drawn) [drawing 260]	95.1	55.3
		NC(CC(=O)NCC1(CNC(=O)C(O)C(N)Cc2ccccc2)CCCCC1)Cc1cc(F)ccc1F (stereo not drawn) [drawing 273]	7.4	7
		NC(CC(=O)Nc1ccc(NC(=O)C(O)C(N)Cc2ccccc2)cc1)Cc1cc(F)ccc1F (stereo not drawn) [drawing 245]	14.8	14.6
		CC(C)(NC(=O)CC(N)Cc1ccccc1)C(C)(C)NC(=O)C(O)C(N)Cc1ccccc1 (stereo not drawn) [drawing 226]	46.9	16.1
		NC(CNC(=O)c1cccc(NC(=O)C(O)C(N)Cc2ccc(-c3ccsc3)cc2)c1)Cc1cc(F)ccc1F (stereo not drawn) [drawing 284]	4.7	3.9
		NC(CC(=O)NCC1(CNC(=O)C(O)C(N)Cc2ccccc2)CCC1)Cc1ccccc1 (stereo not drawn) [drawing 235]	200	157
		CN(CCCNC(=O)C(O)C(N)Cc1ccccc1)C(=O)CC(N)Cc1cc(F)ccc1F (stereo not drawn) [drawing 243]	157	≥ 200
		CC(C)(CNC(=O)CC(N)Cc1cc(F)ccc1F)CNC(=O)C(OC(=O)CCCc1ccccc1)C(N)Cc1ccccc1 (stereo not drawn) [drawing 255]	2.5	3
		CC(C)(CNC(=O)CC(N)C(=O)N1CCSC1)CNC(=O)C(O)C(N)Cc1ccccc1 (stereo not drawn) [drawing 236]	200	≥ 200
		CC(C)(CNC(=O)CC(N)Cc1cc(F)ccc1F)CNC(=O)C(O)C(N)Cc1ccc(O)cc1 (stereo not drawn) [drawing 279]	43.2	37.6
		CCCCCCCCCC(=O)OC(C(=O)NCC(C)(C)CNC(=O)CC(N)Cc1cc(F)ccc1F)C(N)Cc1ccccc1 (stereo not drawn) [drawing 254]	2.5	3.1
		NC(CC(=O)NC1CCCC(NC(=O)C(O)C(N)Cc2ccccc2)C1)Cc1cc(F)ccc1F (stereo not drawn) [drawing 269]	200	113
		NC(CC(=O)NCCCCNC(=O)C(O)C(N)Cc1ccccc1)C(=O)N1CCSC1 (stereo not drawn) [drawing 248]	28.3	35.2
		NC(CC(=O)NCCCCCCNC(=O)C(O)C(N)Cc1ccccc1)Cc1ccccc1 (stereo not drawn) [drawing 234]	200	
		CC(C)(CNC(=O)C(O)C(N)Cc1ccccc1)CNC(=O)C(CC(=O)O)C(N)Cc1cc(F)ccc1F (stereo not drawn) [drawing 262]		88.3

IC50 [2] [µM]	IC50 [3] [µM]	SMILES	IC50 [1] [µM]	IC50 (T lymphocytes) [µM]
		CCCCCCCCCCCCCC(=O)NC(CC(=O)NCC(C)(C)CNC(=O)C(O)C(Cc1ccccc1)NC(=O)CCCCCCCCCCCCC)Cc1cc(F)ccc1F (stereo not drawn) [drawing 264]		98.7
> 25	2.2	CC(C)(CNC(=O)CC(N)Cc1ccccc1)CNC(=O)CC(O)C(N)Cc1ccccc1 (stereo not drawn) [drawing 24]		
0.191	1.67	NC(CC(=O)NCC1(CNC(=O)C(O)C(N)Cc2ccccc2)CCC1)Cc1ccccc1 (stereo not drawn) [drawing 29]		
0.08	0.16	NC(CC(=O)NCC1(CNC(=O)C(O)C(N)Cc2ccccc2)CCCC1)Cc1cc(F)ccc1F (stereo not drawn) [drawing 68]		
		CN(CCCNC(=O)CC(N)Cc1cc(F)ccc1F)C(=O)C(O)C(N)Cc1ccccc1 (stereo not drawn) [drawing 246]		≥ 200
0.35	0.5	NC(CC(=O)Nc1cccc(NC(=O)C(O)C(N)Cc2ccccc2)c1)Cc1cc(F)ccc1F (stereo not drawn) [drawing 64]		
1.4	3.7	CC(C)(CNC(=O)C(O)C(N)Cc1ccccc1)CNC(=O)C(CC(=O)O)C(N)Cc1cc(F)ccc1F (stereo not drawn) [drawing 56]		
18	0.6	CCCCCCCCCCCC(=O)OC(C(=O)NCC(C)(C)CNC(=O)CC(N)Cc1cc(F)ccc1F)C(N)Cc1ccccc1 (stereo not drawn) [drawing 47]		
1.9	0.03	CCCCCC(=O)OC(C(=O)NCC(C)(C)CNC(=O)CC(N)Cc1cc(F)ccc1F)C(N)Cc1ccccc1 (stereo not drawn) [drawing 55]		
> 50	0.1	CC(C)(CCNC(=O)CC(N)Cc1cc(F)ccc1F)CNC(=O)C(O)C(N)Cc1ccccc1 (stereo not drawn) [drawing 36]		
10	0.07	NC(CC(=O)N1CCCN(C(=O)C(O)C(N)Cc2ccccc2)CC1)Cc1cc(F)ccc1F (stereo not drawn) [drawing 65]		
		CCC(CC)(CNC(=O)CC(N)Cc1cc(F)ccc1F)CNC(=O)C(O)C(N)Cc1ccccc1 (stereo not drawn) [drawing 265]		7.2
> 50	25	CCCCCCCCCCCCCCCCOC(C(=O)NCC(C)(C)CNC(=O)CC(N)Cc1cc(F)ccc1F)C(N)Cc1ccccc1 (stereo not drawn)		
0.2	0.3	CCCCCCCC(=O)OC(C(=O)NCC(C)(C)CNC(=O)CC(N)Cc1cc(F)ccc1F)C(N)Cc1ccccc1 (stereo not drawn) [drawing 41]		
8.5	0.178	CN(CCCN(C)C(=O)C(O)C(N)Cc1ccccc1)C(=O)CC(N)Cc1cc(F)ccc1F (stereo not drawn) [drawing 32]		
0.03	0.12	NC(CC(=O)NC1CCCC(NC(=O)C(O)C(N)Cc2ccccc2)C1)Cc1cc(F)ccc1F (stereo not drawn) [drawing 63]		
0.12	2.67	NC(CC(=O)NCCCCCNC(=O)C(O)C(N)Cc1ccccc1)Cc1ccccc1 (stereo not drawn) [drawing 27]		
0.009	1.7	NC(CNC(=O)c1cccc(NC(=O)C(O)C(N)Cc2ccccc2)c1)Cc1cc(F)ccc1F (stereo not drawn) [drawing 71]		
0.87	0.45	CC(C(=O)NCC(C)(C)CNC(=O)C(O)C(N)Cc1ccccc1)C(N)Cc1cc(F)ccc1F (stereo not drawn) [drawing 60]		
2	2.12	CC(C)(CNC(=O)CC(N)C(=O)N1CCSC1)CNC(=O)C(O)C(N)Cc1ccccc1 (stereo not drawn) [drawing 30]		
2.8	2.6	CCC(CC)(CNC(=O)CC(N)Cc1ccccc1)CNC(=O)C(O)C(N)Cc1ccccc1 (stereo not drawn) [drawing 22]		
> 50	> 50	CCCCCCCCCCCCCCCC(=O)NC(CC(=O)NCC(C)(C)CNC(=O)C(O)C(Cc1ccccc1)NC(=O)CCCCCCCCCCCCCCC)Cc1cc(F)ccc1F (stereo not drawn) [drawing 62]		
> 50	0.12	CCCCCCCC(=O)OC(C(=O)NCCCCNC(=O)CC(N)Cc1cc(F)ccc1F)C(N)Cc1ccccc1 (stereo not drawn) [drawing 50]		
